Test results published in ChEMBL document CHEMBL1148083, “Patuletin acetylrhamnosides from Kalanchoe brasiliensis as inhibitors of human lymphocyte proliferative activity” (J Nat Prod, 1994).
≈ marks a conversion by molar mass, not a printed value.

Test: Inhibition of PHA-induced human lymphocyte proliferation
Assay type: functional, cell-based

Structure (SMILES) | IC50
COc1c(O[C@@H]2O[C@@H](C)[C@H](O)[C@@H](OC(C)=O)[C@H]2O)cc2oc(-c3ccc(O)c(O)c3)c(O[C@@H]3O[C@@H](C)[C@H](O)[C@@H](O)[C@H]3O)c(=O)c2c1O | 10 µg/mL (≈ 15 µM)
COc1c(O[C@@H]2O[C@@H](C)[C@H](O)[C@@H](OC(C)=O)[C@H]2O)cc2oc(-c3ccc(O)c(O)c3)c(O[C@@H]3O[C@@H](C)[C@H](OC(C)=O)[C@@H](O)[C@H]3O)c(=O)c2c1O | 0.25 µg/mL (≈ 0.353 µM)
COc1c(O[C@@H]2O[C@@H](C)[C@H](O)[C@@H](O)[C@H]2OC(C)=O)cc2oc(-c3ccc(O)c(O)c3)c(O[C@@H]3O[C@@H](C)[C@H](OC(C)=O)[C@@H](O)[C@H]3O)c(=O)c2c1O [KALAMBROSIDE A] | 0.5 µg/mL (≈ 0.706 µM)
COc1c(O[C@@H]2O[C@@H](C)[C@H](O)[C@@H](O)[C@H]2OC(C)=O)cc2oc(-c3ccc(O)c(O)c3)c(O[C@@H]3O[C@@H](C)[C@H](O)[C@@H](O)[C@H]3O)c(=O)c2c1O [KALAMBROSIDE B] | 1 µg/mL (≈ 1.5 µM)
COc1c(O[C@@H]2O[C@@H](C)[C@H](O)[C@@H](O)[C@H]2O)cc2oc(-c3ccc(O)c(O)c3)c(O[C@@H]3O[C@@H](C)[C@H](OC(C)=O)[C@@H](O)[C@H]3O)c(=O)c2c1O [KALAMBROSIDE C] | > 10 µg/mL
